Data as given in patent publication US6605639B1, “Ligands of nuclear receptor” (Nuclear Receptor Research, Ltd., priority 1998, dated 2003).

Legend:
RAR = target: T1, RAR (Homo sapiens, UniProt P10276); assay: RAR reporter gene (luciferase) transfer assay in COS-1 cells; type: cell-based; settings: control lot = 1
T1 construct: expressed in transfected cells; host or cells: COS-1 cells
T1 sequence (P10276 1-462): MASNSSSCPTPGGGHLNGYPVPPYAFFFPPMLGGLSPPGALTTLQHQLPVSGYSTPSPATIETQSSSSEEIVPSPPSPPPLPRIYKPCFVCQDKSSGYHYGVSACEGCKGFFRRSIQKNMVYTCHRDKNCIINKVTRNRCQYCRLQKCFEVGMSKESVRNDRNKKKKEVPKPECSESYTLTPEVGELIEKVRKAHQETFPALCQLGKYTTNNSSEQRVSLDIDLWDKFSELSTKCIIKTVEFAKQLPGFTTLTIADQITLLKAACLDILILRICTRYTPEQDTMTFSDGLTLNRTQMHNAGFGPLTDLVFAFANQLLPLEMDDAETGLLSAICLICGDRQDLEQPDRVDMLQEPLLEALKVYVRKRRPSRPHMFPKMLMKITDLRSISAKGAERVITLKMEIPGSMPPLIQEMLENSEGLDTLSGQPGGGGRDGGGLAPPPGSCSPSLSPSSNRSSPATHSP
Source text: Each value means the degree of increase in the luciferase activity, which is expressed by referring the luciferase activity in the control lot as to 1, caused by the addition of the corresponding compound.
As a substitute for a plasmid containing a luciferase gene under the regulation in expression by RXR response element (pRXRL:RXRE-SV40 luciferase), and the RXRα expression plasmid (pRXRα); a plasmid containing a luciferase gene under the regulation in expression by RXR response element (pRARL:RASE-SV40 luciferase), and a […] (pRARα) were transferred into COS-1 cells. Transfectants with these plasmids and the compound of the present invention (concentration: 10^−4 to 10^−7 M) were added to the culture.
After sucking off the medium from the Petri dish, […] of a cultured cell lysing solution (25 mM Tris phosphate buffer (pH 7.8), 2 mM 1,2-diaminocyclohexane-N, N,N′,N′-tetraacetate, 10% glycerol, 1% Triton X-100) was added and the cells were peeled off with a rubber policeman and collected. After completely disrupting the cells by freezing and melting, the cells were centrifuged at 4° C. (15,000 rpm, 2 min) and the supernatant thus obtained was employed as a sample for measurement. To 20 ml of the supernatant, 100 ml of a luciferase substrate solution (2.14 mg of Co-A, 100 ml of 470 mM D-Luciferin, 200 ml of 530 mM ATP, 2 ml of DTT-Tricine buffer (pH 7.8)) was added and the fluorescence intensity was measured with a luminometer (ATTO Luminosensor AB-2000). To measure the β-galactosidase for determining the gene transfer efficiency, using a Luminescent β-galactosidase detection kit II (Clontech), fluorescence intensity was measured by a luminometer.

[1] = tested on: cholesterol-7α hydroxylase; assay: Formation of 7α-hydroxycholesterol in hepatic microsome of treated rats; type: in vivo, rat; settings: for 7-α-Hydorxycholesterol / 7-α-Hydorxycholesterol (conversion rate): 7 times, 1% cholesterol feed, average of 5 rats
Procedure: To examine the function mechanism of the compounds of the present invention for promoting bile acid excretion, an experiment was carried out to study the effect on a nuclear receptor LXR. It is assumed that LXR, which is a special nuclear receptor in the liver, might be a cholesterol sensor acting with 22-hydroxycholesterol as a ligand (Bethany A. Janowski at al., Nature 383:728-731, 1996). When cholesterol is accumulated in excess in a respective organ, LXR binds to the ligand, forms a heterodimer with RXR, and then binds to the hormone response element. This binding serves as a signal for promoting the oxidation of cholesterol into bile acid to be excreted from the body, thereby reducing deposited cholesterol. Accordingly, the liver is the organ which accumulates cholesterol in the largest amount and, at the same time, releases cholesterol as bile acid in the largest amount. It is estimated that the ability of the compounds of the present invention to promote the excretion of bile acid into feces would be established as follows. In the liver, RXR and LXR bind to the corresponding ligands, subsequently form a heterodimer with each other, and thus promote the expression of colesterol-7α-hydroxylase which is the rate-limiting enzyme in the biosynthesis pathway of bile acid. That is to say, it is estimated that the compounds of the present invention, ligands of RXR, would promote the transcription of the gene of colesterol-7α-hydroxylase (i.e., the enzyme of the rate state in the bile acid biosynthesis in the liver) and thus enhance the expression of colesterol-7α-hydroxylase. […] Accordingly, it can be concluded that the difference between the effects of clofibrate and the compounds of the present invention on cholesterol metabolism resides in that the former is a ligand of PPARα which is not capable of forming a heterodimer with LXR while the latter enhance the transcription of cholesterol oxidase gene RXR ligand-dependently and thus promote the excretion as bile acid from the body. These findings can be regarded as one major aspect of the present invention.
The experiment was carried out as follows. For each compound, 10 male Sprague Dawley rats weighing about 200 g were divided into 2 groups at random and fed for a week with a powdery rat feed (CE-2; Nippon Crea Co., Ltd.) containing 1% of cholesterol and drinking water ad libitum. The compounds of the present invention were suspended in a 2% acacia solution and orally administered by force once a day 7 times continuously in a dose of 5 mg/kg (Compound-1 and Compound-26) or 20 mg/kg (Compound-6 and Compound-14). In the early morning of the day 8, each animal was killed by blood loss. After refluxing with physiological saline, the liver was taken out immediately. Then 4 times as much 250 mM sucrose solution (containing 75 mM of nicotinamide, 1 mM of EDTA and 0.5 mM of MgCl2) was added to the liver and the mixture was ground with the use of a Teflon homogenizer. Then the liquid ground matter was centrifuged at 9500G for 15 minutes at 4° C. and the mitochondria-free supernatant thus obtained was further centrifuged at 105000G for 60 minutes to thereby separate a microsome fraction. By using the microsome thus separated, the yield of […] was measured in a conventional manner and the conversion rate was calculated.

3-[5-[l(R),2(S),6(S)-trimethyl-3-oxocylohexyl]-3-methyl-2,4-pentadienyl]-2,4-dihydroxy-5-chloro-6-methylbenzaldehyde [Compound-1]
degree of increase in the luciferase activity, RAR vector (RAR; 10^−6 M): 30
7-α-Hydorxycholesterol ([1]; 5 mg/kg oral once a day): 3.80 nM/hr/mg protein
7-α-Hydorxycholesterol (conversion rate) ([1]; 5 mg/kg oral once a day): 5.51%

COc1c(Cl)c(C)c(C=O)c(O)c1C/C=C(C)/C=C/[C@@]1(C)[C@H](C)CCC(=O)[C@@H]1C [Compound-6, 4-O-methylASC]
degree of increase in the luciferase activity, RAR vector (RAR; 5 × 10^−6 M): 35
7-α-Hydorxycholesterol ([1]; 20 mg/kg oral once a day): 3.61 nM/hr/mg protein
7-α-Hydorxycholesterol (conversion rate) ([1]; 20 mg/kg oral once a day): 5.30%
enzymatic activity and yield of colesterol-7α-hydroxylase per unit protein weight ([1]; ground liver of orally treated rats): elevated dose-dependently

CC(/C=C/[C@@]1(C)[C@H](C)CCC(=O)[C@@H]1C)=C\Cc1c(O)c(C=O)c(C)c(Cl)c1OCC(=O)O [Compound-14, 4-O-carboxymethylASC]
degree of increase in the luciferase activity, RAR vector (RAR; 10^−5 M): 38
7-α-Hydorxycholesterol ([1]; 20 mg/kg oral once a day): 4.47 nM/hr/mg protein
7-α-Hydorxycholesterol (conversion rate) ([1]; 20 mg/kg oral once a day): 7.06%

CC(/C=C/C1(C)C(C)C=CC(=O)C1C)=C\Cc1c(O)c(Cl)c(C)c(C=O)c1O (stereo not shown) [Compound-26]
degree of increase in the luciferase activity, RAR vector (RAR; 4 × 10^−7 M): 33
7-α-Hydorxycholesterol ([1]; 5 mg/kg oral once a day): 3.31 nM/hr/mg protein
7-α-Hydorxycholesterol (conversion rate) ([1]; 5 mg/kg oral once a day): 4.00%
